Here are results for 1 compound from US12540143B2, “Methods and compositions for targeted protein degradation” (Ranok Therapeutics (Hangzhou) Co. Ltd., priority 2019, dated 2026).

Where only a bound is given, the exact number is not on record here.

The target in one data set is BRD4 BD1 (Homo sapiens, UniProt O60885). The experiment in a line: Bromodomain Binding Assay. The conditions noted are these: 10 μM Compound 074, read-out: Bromodomain Binding % of Control.
The target of the next data set is HSP90α (Homo sapiens, UniProt P07900). The experiment in a line: HSP90α Binding Fluorescent Polarization (FP) Assay. The conditions noted are these: as shown in Table 1. Here is the method:
HSP90α Binding Fluorescent Polarization (FP) Assay
A master mix was prepared with assay buffer, BSA and FITC-geldanamycin. In a 96-well plate, a serial 3-fold dilution of each compound was prepared ranging from 40 μM down until 2.0 nM. Also in a 96-well plate, recombinant HSP90α protein was diluted to 28 μg/ml. Then, in a 384-well plate, 10 μl of master mix and 5 μl of compound dilution were added per well to duplicate wells and mixed by brief shaking. Then 5 μl of diluted HSP90α protein was added per well, mixed by brief shaking, incubated at 25° C. for 30, 60 and 120 min and fluorescence was measured on an En Vision Plate Reader. Background-subtracted mP values were calculated from En Vision raw data and a four-parameter “log[inhibitor] vs. response” curve was fitted using GraphPad Prism 7.0.

Another data set addresses BPTF (Homo sapiens, UniProt Q12830). Put plainly: Bromodomain Binding Assay. The conditions noted are these: 10 μM Compound 074, read-out: Bromodomain Binding % of Control.
The target in the next data set is BRD7 (Homo sapiens, UniProt Q9NPI1). Put plainly: Bromodomain Binding Assay. The conditions noted are these: 10 μM Compound 074, read-out: Bromodomain Binding % of Control.
Sequence of BRD7 (Q9NPI1 131-235 limits assumed): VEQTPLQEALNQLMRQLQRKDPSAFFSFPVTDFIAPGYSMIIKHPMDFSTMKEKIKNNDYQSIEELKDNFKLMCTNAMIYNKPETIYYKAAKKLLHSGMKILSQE
For the next data set, the target named is BRD2 BD2 (Homo sapiens, UniProt P25440). Put plainly: Bromodomain Binding Assay. The settings on record: 10 μM Compound 074, read-out: Bromodomain Binding % of Control.
Sequence of BRD2 BD2 (P25440 344-453 limits assumed): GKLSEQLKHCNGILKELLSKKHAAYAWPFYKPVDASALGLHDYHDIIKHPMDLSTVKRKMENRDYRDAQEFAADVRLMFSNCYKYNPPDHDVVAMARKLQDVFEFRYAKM
In another data set the test system is HSP90 client proteins. The experiment in a line: HSP90 Client Protein Degradation Flow Cytometry Assay (summary over all clients). In kind it is cell-based, human. The conditions noted are these: ERBB2, IGF1R, EGFR and RAF1. Here is the method:
MV4-11 cells were plated in a 24-well tissue culture plate at a density of 350,000 cells/450 μL/well and incubated in 37° C./5% CO2 for 1 hr. Cells were then treated with compounds at various concentrations and incubated in 37° C./5% CO2 for 24 hr. Cells were harvested, washed once, counted and 200 μL of 1% paraformaldehyde/PBS was added and incubated for 15 min at room temperature. 200 μL of 1×PBS/0.4% Triton X-100 was added and incubated for 15 min at 4° C. Cells were washed three times and resuspended in 50 μL of 1×PBS/0.2% Triton X-100. 2 μL/10^6 cells of anti-BRD4 antibody (ABCAM, #128874) was added and mixed by pipetting up and down. Cells were incubated for 30 min at room temperature in the dark, washed three times and resuspended in 50 μL of 1×PBS/0.2% Triton X-100. Goat anti-rabbit IgG H&L antibody (1:2000 dilution) was added and mixed by pipetting up and down and incubated for 30 min at room temperature in the dark. Finally, cells were washed three times and resuspended in 200 μL of PBS for flow cytometric analysis.
Similar flow cytometry experiments for ERBB2 in BT-474 human breast carcinoma cells (ATCC, #HTB-20) and IGF1R, EGFR and RAF1 in HEK-293 human embryonic kidney (ATCC, #CRL-1573) were performed using anti-ERBB2 (R&D, #FAB1129P), anti-IGF1R (Cell Signaling Technology, #9750), anti-EGFR (Cell Signaling Technology, #139690) and anti-RAF1 (ABCAM, #ab181115) antibodies.

Another data set concerns the target T1, TAF1 BD2 (Homo sapiens, UniProt P21675).
T1 construct: made in house; host or cells: T7 phage grown in E. coli host derived from BL21
Put plainly: Bromodomain Binding Assay. The conditions noted are these: 10 μM Compound 074, read-out: Bromodomain Binding % of Control.

The target in another data set is BRD4 BD2 (Homo sapiens, UniProt O60885). Put plainly: Bromodomain Binding Assay. The settings on record: 10 μM Compound 074, read-out: Bromodomain Binding % of Control.
The target of a further data set is BRDT BD2 (Homo sapiens, UniProt Q58F21). The experiment in a line: Bromodomain Binding Assay. The settings on record: 10 μM Compound 074, read-out: Bromodomain Binding % of Control.
The next data set deals with T2, TAF1L BD2 (Homo sapiens, UniProt Q8IZX4).
T2 construct: made in house; host or cells: T7 phage grown in E. coli host derived from BL21
T2 sequence (Q8IZX4 1517-1626 limits assumed): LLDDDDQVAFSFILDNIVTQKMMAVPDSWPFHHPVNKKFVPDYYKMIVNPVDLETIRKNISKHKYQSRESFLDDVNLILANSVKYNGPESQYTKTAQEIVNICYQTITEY
The experiment in a line: Bromodomain Binding Assay. The conditions noted are these: 10 μM Compound 074, read-out: Bromodomain Binding % of Control.

Another data set addresses T3, TRIM133 (Homo sapiens, UniProt Q9UPN9).
T3 construct: made in house; host or cells: T7 phage grown in E. coli host derived from BL21
Put plainly: Bromodomain Binding Assay. The settings on record: 10 μM Compound 074, read-out: Bromodomain Binding % of Control.

The next data set concerns the target KAT2A (Homo sapiens, UniProt Q92830). The experiment in a line: Bromodomain Binding Assay. The conditions noted are these: 10 μM Compound 074, read-out: Bromodomain Binding % of Control.
Another data set has as its target BRD2 BD1 (Homo sapiens, UniProt P25440). Put plainly: Bromodomain Binding Assay. The settings on record: 10 μM Compound 074, read-out: Bromodomain Binding % of Control.
The next data set concerns the target EP300 (Homo sapiens, UniProt Q09472). The experiment in a line: Bromodomain Binding Assay. The settings on record: 10 μM Compound 074, read-out: Bromodomain Binding % of Control.
The target of a further data set is BRD3 BD2 (Homo sapiens, UniProt Q15059). The experiment in a line: Bromodomain Binding Assay. The settings on record: 10 μM Compound 074, read-out: Bromodomain Binding % of Control.
Sequence of BRD3 BD2 (Q15059 306-415 limits assumed): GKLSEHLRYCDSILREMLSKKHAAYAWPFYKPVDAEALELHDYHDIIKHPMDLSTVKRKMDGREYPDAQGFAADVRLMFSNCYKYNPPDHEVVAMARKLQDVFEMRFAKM
For another data set, the target named is T4, SMARCA2 (Homo sapiens, UniProt P51531).
T4 construct: made in house; host or cells: T7 phage grown in E. coli host derived from BL21
T4 sequence (P51531 1378-1506 limits assumed): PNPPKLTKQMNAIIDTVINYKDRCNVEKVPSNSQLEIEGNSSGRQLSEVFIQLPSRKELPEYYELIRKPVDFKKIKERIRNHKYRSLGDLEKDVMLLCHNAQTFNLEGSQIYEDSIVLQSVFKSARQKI
The experiment in a line: Bromodomain Binding Assay. The conditions noted are these: 10 μM Compound 074, read-out: Bromodomain Binding % of Control.

The next data set has as its target CECR2 (Homo sapiens, UniProt Q9BXF3). The experiment in a line: Bromodomain Binding Assay. The settings on record: 10 μM Compound 074, read-out: Bromodomain Binding % of Control.
The next data set concerns the target BAZ2A (Homo sapiens, UniProt Q9UIF9). The experiment in a line: Bromodomain Binding Assay. The settings on record: 10 μM Compound 074, read-out: Bromodomain Binding % of Control.
Data set [1] deals with SU-DHL-4 diffuse large B-cell lymphoma xenograft. Put plainly: SU-DHL-4 DLBCL xenograft model in mice. Here is the method: 10 μL the cell proliferation reagent CCK-8 (WST-8) was added into each well and incubated at 37° C./5% CO2 for 3-4 hr and the absorbance at 450 nm measured with an En Vision Plate Reader.
5×10^6 MV-4-11 or 1×10^7 SU-DHL-4 cells were collected and re-suspended in 0.1 mL of serum-free media with Matrigel (1:1 v/v) per mouse for subcutaneous inoculation in isoflurane anesthetized male BALB/c nude or C.B-17 scid mice, respectively (treated in accordance with AAALAC animal welfare guidelines). When the average tumor volumes reached 100-200 mm^3, tumor volume outliers were removed and the remaining animals randomly divided into groups of 6-8 with similar average tumor volumes in each group. […] Animals were intravenously dosed at 25 mg/kg, 50 mg/kg or 100 mg/kg 1×/week for 3 or 4 weeks. The appearance and behavior of each mouse was observed and recorded daily. Body weights and tumor volumes were measured and recorded every 2-4 days and the results were expressed as group means±SEM. Pairwise statistical comparisons between groups were performed by one-way ANOVA, and p<0.05 was considered statistically significant.

The next data set has as its target BRD3 BD1 (Homo sapiens, UniProt Q15059). The experiment in a line: Bromodomain Binding Assay. The settings on record: 10 μM Compound 074, read-out: Bromodomain Binding % of Control.
In a further data set the target is CREBBP (Homo sapiens, UniProt Q92793). Put plainly: Bromodomain Binding Assay. The conditions noted are these: 10 μM Compound 074, read-out: Bromodomain Binding % of Control.
Sequence of CREBBP (Q92793 1085-1192 limits assumed): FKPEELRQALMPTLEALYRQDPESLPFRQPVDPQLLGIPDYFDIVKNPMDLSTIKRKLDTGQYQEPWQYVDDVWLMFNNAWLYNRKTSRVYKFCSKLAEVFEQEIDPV
Where [2] appears, read: 100 mg/kg intravenous 1×/week, after 4 weeks of dosing.

Sequence of BRD2 BD1 (P25440 74-180 limits assumed): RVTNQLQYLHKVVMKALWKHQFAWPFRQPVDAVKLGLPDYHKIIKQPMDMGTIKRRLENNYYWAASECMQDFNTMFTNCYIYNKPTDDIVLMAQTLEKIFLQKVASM
T1 sequence (P21675 1519-1628 limits assumed): as the sequence (Q8IZX4 1517-1626 limits assumed) above, with M46V, V51M, I102V, I107L counted along it
Sequence of CECR2 (Q9BXF3 434-538 limits assumed): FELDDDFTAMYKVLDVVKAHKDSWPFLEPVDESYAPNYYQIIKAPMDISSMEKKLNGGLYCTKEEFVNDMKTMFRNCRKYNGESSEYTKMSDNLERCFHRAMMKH
Sequence of EP300 (Q09472 1049-1156 limits assumed): as the sequence (Q92793 1085-1192 limits assumed) above, with N47S, V73I, F93Y, A98S counted along it
Sequence of BRD3 BD1 (Q15059 34-140 limits assumed): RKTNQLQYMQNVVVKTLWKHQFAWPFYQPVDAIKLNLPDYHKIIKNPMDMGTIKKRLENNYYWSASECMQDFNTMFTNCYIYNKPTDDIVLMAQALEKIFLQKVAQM
T3 sequence (Q9UPN9 957-1080 limits assumed): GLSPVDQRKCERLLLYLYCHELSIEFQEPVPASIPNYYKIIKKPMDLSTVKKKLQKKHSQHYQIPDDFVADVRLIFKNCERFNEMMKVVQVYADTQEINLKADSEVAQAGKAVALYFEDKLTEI
Sequence of KAT2A (Q92830 728-832 limits assumed): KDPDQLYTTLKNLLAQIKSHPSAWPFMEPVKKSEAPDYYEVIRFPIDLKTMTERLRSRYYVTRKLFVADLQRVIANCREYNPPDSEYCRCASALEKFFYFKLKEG
Sequence of BAZ2A (Q9UIF9 1793-1897 limits assumed): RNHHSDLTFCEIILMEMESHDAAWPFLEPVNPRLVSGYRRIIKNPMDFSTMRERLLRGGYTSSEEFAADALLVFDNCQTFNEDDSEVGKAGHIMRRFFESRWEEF

In the case of `Cc1sc2c(c1C)C(c1ccc(Cl)cc1)=N[C@@H](CC(=O)N1CCC(CN3CCN(Cc4ccc(-n5c(O)nnc5-c5cc(C(C)C)c(O)cc5O)cc4)CC3)CC1)c1nnc(C)n1-2.Cl` [Compound 74, (S)-2-(4-(4-chlorophenyl)-2,3,9-trimethyl-6H-thieno[3,2-f][1,2,4]triazolo[4,3-a][1,4]diazepin-6-yl)-1-(4-((4-(4-(3-(2,4-dihydroxy-5-isopropylphenyl)-5-hydroxy-4H-1,2,4-triazol-4-yl)benzyl)piperazin-1-yl)methyl)piperidin-1-yl)ethan-1-one hydrochloride], the remaining activity at 10 µM is less than 10% at BRD4 BD1; greater than 75% on BPTF; greater than 75% at BRD7; less than 10% on BRD2 BD2; greater than 75% at TAF1 BD2; less than 10% on BRD4 BD2. Also, the remaining activity at 10 µM is less than 10% at BRDT BD2; greater than 75% at TAF1L BD2; greater than 75% on TRIM133; greater than 75% at KAT2A; less than 10% at BRD2 BD1; 11 to 75% at EP300. For the same compound, the remaining activity at 10 µM is less than 10% on BRD3 BD2; greater than 75% at SMARCA2; greater than 75% on CECR2; greater than 75% on BAZ2A; less than 10% at BRD3 BD1; greater than 75% on CREBBP. Moreover, at HSP90α, the “potency in binding to HSP90 (in words)” value is reported as “moderate potency”. The IC50 (commonly the concentration that inhibits the measured activity by half) in the data set with HSP90 client proteins was in the range of 0.339 to 1.05 µM. Further, the “tumor growth inhibition (FIG. 4a)” value in [1] (setting [2]) is “significant tumor growth inhibition”. The “tumor vs control (T/C) value” in [1] (setting [2]) turned out to be 41%. Further, in data set [1] (any dose level, SU-DHL-4 xenograft), the “animal deaths and body weights (FIG. 4b)” value is given as “No animal deaths or significant effects on body weights were observed”.
